Measured values published in ChEMBL document CHEMBL4304811, “Development of a Water-Soluble Indolylmaleimide Derivative IM-93 Showing Dual Inhibition of Ferroptosis and NETosis” (ACS Med Chem Lett, 2019).

Tests used:
[1] = target: ALK tyrosine kinase receptor (Homo sapiens) (UniProt Q9UM73); assay: Binding affinity to wild-type human partial length ALK (I1088 to E1409 residues) expressed in mammalian expression system assessed as residual binding level at 10 uM by Kinomescan method relative to control
[2] = target: Mitogen-activated protein kinase kinase kinase 2 (Homo sapiens) (UniProt Q9Y2U5); assay: Binding affinity to wild-type human partial length MAP3K2 (S315 to H619 residues) expressed in mammalian expression system assessed as residual binding level at 10 uM by Kinomescan method relative to control
[3] = target: Tyrosine-protein kinase Tec (Homo sapiens) (UniProt P42680); assay: Binding affinity to wild-type human partial length TEC (L341 to D620 residues) expressed in bacterial expression system assessed as residual binding level at 10 uM by Kinomescan method relative to control
[4] = test system: Mast/stem cell growth factor receptor Kit (Homo sapiens), P10721 [D816H]; assay: Binding affinity to human partial length KIT D816H mutant (I571 to D952 residues) expressed in mammalian expression system assessed as residual binding level at 10 uM by Kinomescan method relative to control
[5] = target: Tyrosine-protein kinase ABL1 (Homo sapiens) (UniProt P00519); assay: Binding affinity to wild-type human non-phosphorylated ABL1 (S229 to K512 residues) expressed in mammalian expression system assessed as residual binding level at 10 uM by Kinomescan method relative to control
[6] = target: Ephrin type-A receptor 3 (Homo sapiens) (UniProt P29320); assay: Binding affinity to wild-type human partial length EPHA3 (D604 to K889 residues) expressed in bacterial expression system assessed as residual binding level at 10 uM by Kinomescan method relative to control
[7] = target: Ribosomal protein S6 kinase alpha-2 (Homo sapiens) (UniProt Q15349); assay: Binding affinity to wild-type human partial length C-terminal RSK3 kinase domain 2 (V403 to K700 residues) expressed in bacterial expression system assessed as residual binding level at 10 uM by Kinomescan method relative to control
[8] = target: Dual specificity protein kinase CLK1 (Homo sapiens) (UniProt P49759); assay: Binding affinity to wild-type human full length CLK1 (M1 to I484 residues) expressed in bacterial expression system assessed as residual binding level at 10 uM by Kinomescan method relative to control
[9] = target: Cyclin-dependent kinase 11A (Homo sapiens) (UniProt Q9UQ88); assay: Binding affinity to wild-type human partial length CDC2L2 (D391 to K730 residues) expressed in bacterial expression system assessed as residual binding level at 10 uM by Kinomescan method relative to control
[10] = target: Serine/threonine-protein kinase BRSK2 (Homo sapiens) (UniProt Q8IWQ3); assay: Binding affinity to wild-type human full length BRSK2 (M1 to L674 residues) expressed in bacterial expression system assessed as residual binding level at 10 uM by Kinomescan method relative to control
[11] = target: Phosphatidylinositol 4-kinase beta (Homo sapiens) (UniProt Q9UBF8); assay: Binding affinity to wild-type human full length PIK4CB (M1 to M828 residues) expressed in mammalian expression system assessed as residual binding level at 10 uM by Kinomescan method relative to control
Phosphatidylinositol 4-kinase beta (Homo sapiens), sequence (Q9UBF8 2-816 limits assumed): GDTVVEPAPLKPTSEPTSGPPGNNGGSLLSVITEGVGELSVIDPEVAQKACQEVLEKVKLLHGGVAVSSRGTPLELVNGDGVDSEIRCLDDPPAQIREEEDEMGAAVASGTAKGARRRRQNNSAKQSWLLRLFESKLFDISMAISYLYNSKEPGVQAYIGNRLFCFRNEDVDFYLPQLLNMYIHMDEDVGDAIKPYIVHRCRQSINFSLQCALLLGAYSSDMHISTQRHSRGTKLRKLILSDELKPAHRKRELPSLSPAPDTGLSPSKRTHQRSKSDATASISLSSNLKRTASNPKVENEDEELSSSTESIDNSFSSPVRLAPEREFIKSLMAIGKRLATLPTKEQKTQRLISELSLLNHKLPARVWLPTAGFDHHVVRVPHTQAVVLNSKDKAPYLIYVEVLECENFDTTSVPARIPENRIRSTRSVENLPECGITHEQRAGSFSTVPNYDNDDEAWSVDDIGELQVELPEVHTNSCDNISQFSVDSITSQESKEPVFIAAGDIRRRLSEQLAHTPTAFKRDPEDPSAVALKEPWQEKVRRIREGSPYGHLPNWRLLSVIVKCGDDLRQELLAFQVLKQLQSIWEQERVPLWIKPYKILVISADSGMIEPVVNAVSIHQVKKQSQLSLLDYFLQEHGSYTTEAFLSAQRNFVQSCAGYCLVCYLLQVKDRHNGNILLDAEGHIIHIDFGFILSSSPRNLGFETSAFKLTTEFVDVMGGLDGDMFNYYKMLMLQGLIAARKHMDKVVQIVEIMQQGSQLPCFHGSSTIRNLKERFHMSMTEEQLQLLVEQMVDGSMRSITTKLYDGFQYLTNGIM

[12] = test system: Phosphatidylinositol 4,5-bisphosphate 3-kinase catalytic subunit alpha isoform (Homo sapiens), P42336 [Q546K]; assay: Binding affinity to human partial length PIK3CA Q546K mutant (R108 to N1068 residues) expressed in mammalian expression system assessed as residual binding level at 10 uM by Kinomescan method relative to control
Phosphatidylinositol 4,5-bisphosphate 3-kinase catalytic subunit alpha isoform (Homo sapiens), P42336 [Q546K], sequence (P42336 whole entry Q546K, the tested form may be a part, canonical isoform): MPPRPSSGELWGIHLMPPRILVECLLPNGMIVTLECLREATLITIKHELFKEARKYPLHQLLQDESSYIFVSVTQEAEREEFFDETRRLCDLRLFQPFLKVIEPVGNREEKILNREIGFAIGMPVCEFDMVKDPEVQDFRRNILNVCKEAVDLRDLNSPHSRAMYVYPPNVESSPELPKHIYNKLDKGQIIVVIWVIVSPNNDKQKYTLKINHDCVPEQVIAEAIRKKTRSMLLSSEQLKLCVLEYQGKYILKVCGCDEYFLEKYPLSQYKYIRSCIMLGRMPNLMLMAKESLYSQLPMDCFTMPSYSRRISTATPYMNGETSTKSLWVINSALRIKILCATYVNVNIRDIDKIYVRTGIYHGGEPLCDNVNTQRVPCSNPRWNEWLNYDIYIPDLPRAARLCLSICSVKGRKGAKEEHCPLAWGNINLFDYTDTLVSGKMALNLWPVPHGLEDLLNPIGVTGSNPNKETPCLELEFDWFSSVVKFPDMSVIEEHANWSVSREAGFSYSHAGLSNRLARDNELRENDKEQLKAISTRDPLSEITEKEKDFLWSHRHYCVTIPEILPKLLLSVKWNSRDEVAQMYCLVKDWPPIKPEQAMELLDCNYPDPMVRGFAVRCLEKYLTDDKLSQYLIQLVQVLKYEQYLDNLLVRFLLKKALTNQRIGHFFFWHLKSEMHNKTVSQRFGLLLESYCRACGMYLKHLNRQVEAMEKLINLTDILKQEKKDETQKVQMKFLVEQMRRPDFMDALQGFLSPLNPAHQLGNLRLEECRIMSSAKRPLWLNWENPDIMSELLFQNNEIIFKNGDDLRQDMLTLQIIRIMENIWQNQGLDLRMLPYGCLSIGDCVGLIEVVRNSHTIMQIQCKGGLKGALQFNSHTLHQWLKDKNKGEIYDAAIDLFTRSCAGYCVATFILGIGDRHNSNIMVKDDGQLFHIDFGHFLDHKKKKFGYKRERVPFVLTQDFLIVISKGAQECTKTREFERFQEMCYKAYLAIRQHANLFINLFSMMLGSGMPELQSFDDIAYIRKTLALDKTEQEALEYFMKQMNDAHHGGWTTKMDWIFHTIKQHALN

[13] = target: Proto-oncogene tyrosine-protein kinase receptor Ret (Homo sapiens) (UniProt P07949); assay: Binding affinity to wild-type human partial length RET (E713 to D1014 residues) expressed in bacterial expression system assessed as residual binding level at 10 uM by Kinomescan method relative to control
[14] = target: Serine/threonine-protein kinase 24 (Homo sapiens) (UniProt Q9Y6E0); assay: Binding affinity to wild-type human partial length MST3 (A30 to S311 residues) expressed in bacterial expression system assessed as residual binding level at 10 uM by Kinomescan method relative to control
Serine/threonine-protein kinase 24 (Homo sapiens), sequence (Q9Y6E0 whole entry, looked up, the tested form may be a part): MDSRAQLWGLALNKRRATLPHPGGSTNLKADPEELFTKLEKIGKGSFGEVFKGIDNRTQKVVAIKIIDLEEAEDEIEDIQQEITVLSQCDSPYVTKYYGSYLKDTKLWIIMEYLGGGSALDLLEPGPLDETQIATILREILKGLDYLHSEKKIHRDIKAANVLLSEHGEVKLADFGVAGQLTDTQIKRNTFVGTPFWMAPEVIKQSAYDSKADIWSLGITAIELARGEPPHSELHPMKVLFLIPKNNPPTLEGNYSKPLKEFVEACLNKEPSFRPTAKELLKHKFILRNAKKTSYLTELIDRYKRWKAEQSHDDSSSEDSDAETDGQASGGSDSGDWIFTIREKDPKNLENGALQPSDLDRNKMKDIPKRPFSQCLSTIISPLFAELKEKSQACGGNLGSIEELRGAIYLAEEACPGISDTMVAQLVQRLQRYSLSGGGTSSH

[15] = target: Tyrosine-protein kinase FRK (Homo sapiens) (UniProt P42685); assay: Binding affinity to wild-type human partial length FRK (A215 to F503 residues) expressed in bacterial expression system assessed as residual binding level at 10 uM by Kinomescan method relative to control
Tyrosine-protein kinase FRK (Homo sapiens), sequence (P42685 whole entry, the tested form may be a part): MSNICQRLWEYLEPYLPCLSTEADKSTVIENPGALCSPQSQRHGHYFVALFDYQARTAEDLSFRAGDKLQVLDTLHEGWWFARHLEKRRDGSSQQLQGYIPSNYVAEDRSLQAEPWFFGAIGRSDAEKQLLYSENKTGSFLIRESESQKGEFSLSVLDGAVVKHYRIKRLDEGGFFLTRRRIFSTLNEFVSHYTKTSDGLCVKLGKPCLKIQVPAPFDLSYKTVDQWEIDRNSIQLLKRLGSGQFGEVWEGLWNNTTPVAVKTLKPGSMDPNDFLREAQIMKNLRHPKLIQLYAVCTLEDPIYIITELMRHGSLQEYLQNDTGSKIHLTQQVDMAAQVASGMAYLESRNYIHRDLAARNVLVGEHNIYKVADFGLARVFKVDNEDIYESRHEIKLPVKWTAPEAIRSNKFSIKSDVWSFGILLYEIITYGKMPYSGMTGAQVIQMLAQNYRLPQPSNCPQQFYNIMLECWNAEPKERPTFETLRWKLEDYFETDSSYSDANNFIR

[16] = target: Macrophage colony-stimulating factor 1 receptor (Homo sapiens) (UniProt P07333); assay: Binding affinity to wild-type human partial length CSF1R (I564 to S939 residues) expressed in bacterial expression system assessed as residual binding level at 10 uM by Kinomescan method relative to control
Macrophage colony-stimulating factor 1 receptor (Homo sapiens), sequence (P07333 whole entry, the tested form may be a part): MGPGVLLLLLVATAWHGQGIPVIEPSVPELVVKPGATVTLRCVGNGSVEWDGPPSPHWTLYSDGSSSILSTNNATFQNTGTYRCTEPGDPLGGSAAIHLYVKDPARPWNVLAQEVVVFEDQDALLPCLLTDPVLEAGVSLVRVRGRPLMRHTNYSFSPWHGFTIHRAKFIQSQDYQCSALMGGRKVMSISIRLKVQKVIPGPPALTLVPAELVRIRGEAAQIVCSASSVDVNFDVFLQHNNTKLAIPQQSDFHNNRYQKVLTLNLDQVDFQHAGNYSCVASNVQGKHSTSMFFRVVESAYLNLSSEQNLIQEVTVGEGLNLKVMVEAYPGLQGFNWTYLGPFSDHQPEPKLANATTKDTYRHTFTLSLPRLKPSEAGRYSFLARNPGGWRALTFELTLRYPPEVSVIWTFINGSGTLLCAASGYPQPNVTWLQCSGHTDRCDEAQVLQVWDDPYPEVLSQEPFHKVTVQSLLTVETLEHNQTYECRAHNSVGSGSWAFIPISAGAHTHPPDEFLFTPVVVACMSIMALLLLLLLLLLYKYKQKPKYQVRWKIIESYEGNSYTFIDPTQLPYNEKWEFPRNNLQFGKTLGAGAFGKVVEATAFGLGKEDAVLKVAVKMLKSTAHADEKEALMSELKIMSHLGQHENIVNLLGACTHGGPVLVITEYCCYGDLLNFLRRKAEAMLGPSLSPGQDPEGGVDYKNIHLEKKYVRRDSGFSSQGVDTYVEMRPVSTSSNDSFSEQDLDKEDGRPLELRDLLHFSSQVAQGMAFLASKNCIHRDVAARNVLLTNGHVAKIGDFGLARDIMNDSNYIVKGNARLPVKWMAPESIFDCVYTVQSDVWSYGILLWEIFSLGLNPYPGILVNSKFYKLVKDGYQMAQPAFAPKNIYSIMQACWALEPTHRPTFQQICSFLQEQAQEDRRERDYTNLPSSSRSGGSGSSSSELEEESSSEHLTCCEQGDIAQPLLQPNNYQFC

[17] = target: Receptor tyrosine-protein kinase erbB-2 (Homo sapiens) (UniProt P04626); assay: Binding affinity to wild-type human partial length ERBB2 (K646 to V1225 residues) expressed in mammalian expression system assessed as residual binding level at 10 uM by Kinomescan method relative to control
[18] = target: Ribosomal protein S6 kinase alpha-6 (Homo sapiens) (UniProt Q9UK32); assay: Binding affinity to wild-type human partial length C-terminal RSK4 kinase domain 2 (I401 to Y711 residues) expressed in bacterial expression system assessed as residual binding level at 10 uM by Kinomescan method relative to control
[19] = target: Mitogen-activated protein kinase 13 (Homo sapiens) (UniProt O15264); assay: Binding affinity to wild-type human full length p38-delta (M1 to L365 residues) expressed in bacterial expression system assessed as residual binding level at 10 uM by Kinomescan method relative to control
[20] = target: Insulin receptor-related protein (Homo sapiens) (UniProt P14616); assay: Binding affinity to wild-type human partial length INSRR (R950 to E1278 residues) expressed in bacterial expression system assessed as residual binding level at 10 uM by Kinomescan method relative to control
Insulin receptor-related protein (Homo sapiens), sequence (P14616 27-742 limits assumed): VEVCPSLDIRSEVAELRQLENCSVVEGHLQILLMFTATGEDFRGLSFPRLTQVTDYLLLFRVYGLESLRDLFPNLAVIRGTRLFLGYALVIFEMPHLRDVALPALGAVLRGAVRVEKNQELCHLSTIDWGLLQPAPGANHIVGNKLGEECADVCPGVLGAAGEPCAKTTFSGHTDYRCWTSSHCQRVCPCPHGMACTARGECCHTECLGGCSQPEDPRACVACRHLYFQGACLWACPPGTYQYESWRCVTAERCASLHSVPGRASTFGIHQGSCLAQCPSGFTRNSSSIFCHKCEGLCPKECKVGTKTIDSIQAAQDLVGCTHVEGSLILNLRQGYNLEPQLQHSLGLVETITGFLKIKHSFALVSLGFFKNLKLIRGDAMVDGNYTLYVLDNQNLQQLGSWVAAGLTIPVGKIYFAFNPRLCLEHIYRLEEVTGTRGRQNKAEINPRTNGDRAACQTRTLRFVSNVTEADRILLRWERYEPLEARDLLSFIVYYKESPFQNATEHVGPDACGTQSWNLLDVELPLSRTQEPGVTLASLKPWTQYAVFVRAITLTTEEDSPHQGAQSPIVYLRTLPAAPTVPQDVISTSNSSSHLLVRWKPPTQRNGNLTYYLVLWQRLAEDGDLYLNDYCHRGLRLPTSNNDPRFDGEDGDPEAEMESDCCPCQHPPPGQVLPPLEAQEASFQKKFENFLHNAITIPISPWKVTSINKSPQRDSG
Insulin receptor-related protein (Homo sapiens), sequence (P14616 747-1297 limits assumed): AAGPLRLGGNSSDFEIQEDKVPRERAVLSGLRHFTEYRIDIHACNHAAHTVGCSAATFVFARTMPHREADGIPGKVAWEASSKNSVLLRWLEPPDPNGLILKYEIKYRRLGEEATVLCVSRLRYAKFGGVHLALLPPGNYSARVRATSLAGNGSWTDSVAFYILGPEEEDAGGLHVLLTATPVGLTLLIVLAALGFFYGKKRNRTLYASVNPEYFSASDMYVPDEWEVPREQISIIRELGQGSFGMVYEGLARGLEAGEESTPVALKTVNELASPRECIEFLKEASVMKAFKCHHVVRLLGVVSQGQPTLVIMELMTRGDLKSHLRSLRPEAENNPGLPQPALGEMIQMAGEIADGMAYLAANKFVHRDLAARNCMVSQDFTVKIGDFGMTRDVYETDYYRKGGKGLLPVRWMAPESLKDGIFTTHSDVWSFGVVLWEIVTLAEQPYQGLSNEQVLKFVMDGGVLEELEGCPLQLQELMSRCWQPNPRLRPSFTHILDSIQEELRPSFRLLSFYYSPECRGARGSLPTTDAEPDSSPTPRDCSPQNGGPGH

[21] = target: Serine/threonine-protein kinase tousled-like 2 (Homo sapiens) (UniProt Q86UE8); assay: Binding affinity to wild-type human partial length TLK2 (E424 to N749 residues) expressed in bacterial expression system assessed as residual binding level at 10 uM by Kinomescan method relative to control
[22] = target: Cyclin-dependent kinase 8 (Homo sapiens) (UniProt P49336); assay: Binding affinity to wild-type human partial length CDK8 (M1 to T360 residues) expressed in bacterial expression system assessed as residual binding level at 10 uM by Kinomescan method relative to control
[23] = target: Serine/threonine-protein kinase TNNI3K (Homo sapiens) (UniProt Q59H18); assay: Binding affinity to wild-type human full length TNNI3K (M1 to S835 residues) expressed in bacterial expression system assessed as residual binding level at 10 uM by Kinomescan method relative to control
[24] = test system: Hepatocyte growth factor receptor (Homo sapiens), P08581 [Y1235D]; assay: Binding affinity to human partial length MET Y1235D mutant (D1010 to S1367 residues) expressed in bacterial expression system assessed as residual binding level at 10 uM by Kinomescan method relative to control

## CC(C)N1C(=O)C(NCCCN(C)C)=C(c2cn(C)c3ccccc23)C1=O.Cl
[1]
  Activity: 100%
[2]
  Activity: 83%
[3]
  Activity: 99%
[4]
  Activity: 96%
[5]
  Activity: 84%
[6]
  Activity: 100%
[7]
  Activity: 100%
[8]
  Activity: 98%
[9]
  Activity: 96%
[10]
  Activity: 86%
[11]
  Activity: 85%
[12]
  Activity: 100%
[13]
  Activity: 98%
[14]
  Activity: 100%
[15]
  Activity: 100%
[16]
  Activity: 97%
[17]
  Activity: 92%
[18]
  Activity: 100%
[19]
  Activity: 100%
[20]
  Activity: 95%
[21]
  Activity: 84%
[22]
  Activity: 100%
[23]
  Activity: 100%
[24]
  Activity: 99%
